{"source": "patent US20200223848A1", "about": "“DEGRADATION AGENT USING AUTOPHAGIC MECHANISM OF DAMAGED MITOCHONDRIA” (TOHOKU UNIVERSITY, priority 2017, published 2020)", "assay_type_in_all_cases": "cell-based", "key": {"[1]": {"system": "HeLa cells stably expressing EmGFP-HaloTag-Omp25", "experiment": "Living cell imaging of degradation of injured mitochondria (EmGFP-HaloTag-Omp25 green and MitoTracker Red CMXRos red fluorescence)", "protocol": "HeLa cells cultured in Dulbecco's Modified Eagle Medium (DMEM) were transfected with the plasmid pEmGFP-HaloTag-Omp25 containing a gene sequence encoding the EmGFP-HaloTag-Omp25 fusion protein localized on the mitochondrial outer membrane, and were allowed to stably express the protein. As a result, mitochondria in the cells were able to be observed using green fluorescence as an indicator.\nA red fluorescent dye MitoTracker Red CMXRos (Thermo Fisher Scientific, M7513) was added thereto, followed by incubation for 30 minutes to stain mitochondria. At this stage, the mitochondria in the cells had been stained in two colors by EmGFP-HaloTag-Omp25 and MitoTracker Red CMXRos. Subsequently, MitoTracker Red CMXRos in the medium was removed by medium exchange. Mitochondria to be biosynthesized after this operation can only be detected with green fluorescence, and are not to be detected with red fluorescence. This difference was utilized to observe the degradation process of mitochondria by living cell imaging.\nThe cells were divided into two groups. Indole-FBn was added to an experimental group at a final concentration of […] was not added to a control group. In order to observe living cells at a fixed point for a long period of time, a culture vessel was fixed to a stage-top incubator (37° C., 5% CO2) mounted on a fluorescence microscope (KEYENCE, BX9000), and all the subsequent operations were performed on the microscope. […]\nThe signals of EmGFP-HaloTag-Omp25 and MitoTracker Red CMXRos at the time of the addition of Indole-FBn (−10 h), the time of the addition of CCCP (0 h), 2 hours after the addition of CCCP (+2 h), […] after the addition of CCCP (+8 h), and 16 hours after the addition of CCCP (+16 h) are shown in FIG. 6 and FIG. 7. In the graphs, the intensities of the signals of EmGFP-HaloTag-Omp25 (green fluorescence) and MitoTracker Red CMXRos (red fluorescence) in the photographs shown in FIG. 6 are shown as relative values with the respective intensities at −10 h being defined as 1. […]"}, "[2]": {"system": "HeLa cells", "experiment": "Cytoprotective effect against mitochondrial injury induced by uncoupler CCCP (Hoechst33342 nuclear staining, DNA fragmentation, cell viability)", "from_the_text": "Assessment Method for Cytoprotective Effect of Compound of Example 3, (R)-2-Acetylamino-3-[2-amino-9-(4-fluoro-benzyl)-6-oxo-6,9-dihydro-1H-purin-8-ylsulfanyl]-N-{3-[2-(2-{3-[2-oxo-2-(2-phenyl-1H-indol-3-yl)-acetylamino]-propoxy}-ethoxy)-ethoxy]-propyl}-propionamide (Indole-FBn), Against Mitochondrial Injury, and Confirmation of Inhibition of Cytoprotective Effect with Autophagy Inhibitor (Bafilomycin A1: Baf A1)\nCell Viability under Condition of Treating Cells with Indole-FBn and CCCP (Test Group):\nHeLa cells seeded in Dulbecco's Modified Eagle Medium (DMEM) in a 96-well plate at 30,000 cells/well were incubated under the conditions of 37° C./5% CO2 overnight. […]\nSubsequently, the uncoupler CCCP was added at a final concentration of 10 μM, followed by further incubation for 2 hours to induce mitochondrial injury. Cells in each of which DNA fragmentation was found in the nucleus were judged to be dead cells, and cell viability was calculated by the following equation. […]\nHeLa cells seeded in Dulbecco's Modified Eagle Medium (DMEM) in a 96-well plate at 30,000 cells/well were incubated under the conditions of 37° C./5% CO2 for 1 day, and then subjected to nuclear staining by Hoechst33342 staining. […] Cells in each of which DNA fragmentation was found in the nucleus were judged to be dead cells, and cell viability was calculated. […]"}, "[3]": {"system": "Detroit532 cells", "experiment": "JC-1 staining of mitochondrial membrane potential", "conditions": "Down syndrome patient foreskin-derived fibroblasts; 10 μM, incubation for 3 days", "protocol": "Detroit532 cells, which were Down syndrome patient foreskin-derived fibroblasts, were cultured in Eagle's Minimum Essential Medium. The cells were divided into two groups. A compound (Indole-FBn) was added to an experimental group at a final concentration of 10 μM, and was not added to a control group, followed by incubation for 3 days (37° C., 5% CO2). The cells of each group were each stained with JC-1 (abcam, 113850).\nThe JC-1 dye accumulates in mitochondria having a normal membrane potential to emit red fluorescence. Meanwhile, its localization is lost from mitochondria having an abnormal membrane potential and green fluorescence is emitted. That is, in a JC-1 staining image, a lower “green/red fluorescence intensity ratio” means that the membrane potential of mitochondria is kept more normal. Staining images were analyzed with ImageJ (National Institute of Health), and the “green/red fluorescence intensity ratio” is shown as a graph. Error bars represent standard deviations obtained from data from three independent experiments."}}, "data": [{"smiles": "CC(=O)N[C@@H](CSc1nc2c(=O)[nH]c(N)nc2n1Cc1ccc(F)cc1)C(=O)NCCCOCCOCCOCCCNC(=O)C(=O)c1c(-c2ccccc2)[nH]c2ccccc12", "note": "[Indole-FBn, (R)-2-Acetylamino-3-[2-amino-9-(4-fluoro-benzyl)-6-oxo-6,9-dihydro-1H-purin-8-ylsulfanyl]-N-{3-[2-(2-{3-[2-oxo-2-(2-phenyl-1H-indol-3-yl)-acetylamino]-propoxy}-ethoxy)-ethoxy]-propyl}-propionamide]", "values": [{"measurement": "green and red signal intensities after the addition of CCCP", "setting": "[1]; Indole-FBn-treated group, 2 h, 8 h after CCCP, relative to intensities at -10 h defined as 1", "result": "reduced"}, {"measurement": "removal of injured mitochondria and production of new mitochondria", "setting": "[1]; living cell imaging experiment, overall conclusion", "result": "promoted both the removal of injured mitochondria and the production of new mitochondria"}, {"measurement": "green fluorescence intensity, comparison of 8 hours and 16 hours after the addition of CCCP", "setting": "[1]; only in the Indole-FBn-treated group, indicates production of new mitochondria", "result": "increased"}, {"measurement": "cytoprotective effect under the CCCP-treated condition in coexistence of autophagy inhibitor Baf A1", "setting": "[2]; Baf A1 200 nM added 2 hours before Indole-FBn treatment, CCCP 10 μM", "result": "significantly inhibited"}, {"measurement": "cell death due to mitochondrial injury (cell viability)", "setting": "[2]; Indole-FBn 1 μM for 10 hours, then CCCP 10 μM for 2 hours, versus non-Indole-FBn-treated control", "result": "significantly suppressed cell death"}, {"measurement": "quality of mitochondria (JC-1 green/red fluorescence intensity ratio, membrane potential)", "setting": "[3]", "result": "significantly improved"}]}]}
